Experimental data as given in paper PMC3723128 (Journal of medicinal chemistry, 2013).

Legend:
Format in all cases: biochemical
recombinant pjDHFR = recombinant pjDHFR (Pneumocystis jirovecii, UniProt Q9UUP5); assay: Inhibition of recombinant pjDHFR
recombinant hDHFR = molecular target: T1, recombinant hDHFR (Homo sapiens, UniProt P00374); assay: Inhibition of recombinant hDHFR; conditions: compared to unsubstituted phenyl compound 4
T1 sequence (P00374 1-187): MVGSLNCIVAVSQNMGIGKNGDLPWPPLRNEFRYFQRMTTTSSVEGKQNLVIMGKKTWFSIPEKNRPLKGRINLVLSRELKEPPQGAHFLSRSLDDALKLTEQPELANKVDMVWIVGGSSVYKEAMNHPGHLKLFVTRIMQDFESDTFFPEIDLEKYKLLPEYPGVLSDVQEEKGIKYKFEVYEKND

maDHFR = molecular target: T2, maDHFR (Mycobacterium avium, UniProt O30463); assay: Inhibition of maDHFR
T2 sequence (O30463 1-181): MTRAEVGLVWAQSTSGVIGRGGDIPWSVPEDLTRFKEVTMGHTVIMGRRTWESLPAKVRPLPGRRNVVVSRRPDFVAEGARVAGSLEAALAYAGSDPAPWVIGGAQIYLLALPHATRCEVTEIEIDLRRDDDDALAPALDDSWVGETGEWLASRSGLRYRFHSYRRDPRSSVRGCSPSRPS

Compound: COc1cc(Nc2cnc3nc(N)nc(N)c3c2)cc(OC)c1OC [Compound 8, N^6-(3,4,5-trimethoxyphenyl)pyrido[2,3-d]pyrimidine-2,4,6-triamine]
- h/pj selectivity ratio (recombinant pjDHFR; IC50 hDHFR / IC50 pjDHFR): 12.7

Compound: Nc1nc(N)c2cc(Nc3ccc4ccccc4c3)cnc2n1 [Compound 11, N^6-2-naphthylpyrido[2,3-d]pyrimidine-2,4,6-triamine]
- fold loss in potency against hDHFR (recombinant hDHFR): 10 fold

Compound: Nc1nc(N)c2cc(Nc3cccc4ccccc34)cnc2n1 [Compound 13, N^6-1-naphthylpyrido[2,3-d]pyrimidine-2,4,6-triamine]
- fold loss in potency against hDHFR (recombinant hDHFR): 10 fold

Compound: CN(c1ccccc1)c1cnc2nc(N)nc(N)c2c1 [Compound 16, N^6-methyl-N^6-phenylpyrido[2,3-d]pyrimidine-2,4,6-triamine]
- fold more potent than TMP against pjDHFR (recombinant pjDHFR): about 50 fold

Compound: COc1cc(N(C)c2cnc3nc(N)nc(N)c3c2)cc(OC)c1OC [Compound 20, N^6-methyl-N^6-(3,4,5-trimethoxyphenyl)pyrido[2,3-d]pyrimidine-2,4,6-triamine]
- inhibitory potency against maDHFR (maDHFR): subnanomolar

Compound: CN(c1cnc2nc(N)nc(N)c2c1)c1cccc2ccccc12 [Compound 24, N^6-methyl-N^6-1-naphthylpyrido[2,3-d]pyrimidine-2,4,6-triamine]
- rl/ma selectivity ratio (maDHFR; IC50 rlDHFR / IC50 maDHFR): 10.3

Compound: CN(c1cc(F)c(F)c(F)c1)c1cnc2nc(N)nc(N)c2c1 [Compound 26, N^6-methyl-N^6-(3,4,5-trifluorophenyl)pyrido[2,3-d]pyrimidine-2,4,6-triamine]
- fold more selective for pjDHFR than PTX (recombinant pjDHFR): 18 fold
- fold difference in potency for pjDHFR made by the N9-Me moiety (recombinant pjDHFR; pairs 16/4 and 26/15, from IC50 values in Table 5): ~200 fold
